Here are results for seven molecules from patent publication US9487554B2, “Estra-1,3,5(10),16-tetraene-3-carboxamide derivatives, processes for their preparation, pharmaceutical preparations comprising them and their use for preparing medicaments” (BAYER INTELLECTUAL PROPERTY GmbH, priority 2011, dated 2016).

Data set [1] concerns the target Human CYP17A1 (Homo sapiens (Human), UniProt P05093). In words: Inhibition of CYP17A1 (recombinant enzyme, progesterone hydroxylation, HPLC radio detection). The data set is classed as biochemical. The note with it: for IC50: read-out: IC50 ± SD CYP17. Here is the method:
The inhibition of CYP17A1 by the test compounds was evaluated using a recombinant enzyme. Human CYP17A1 was expressed in E. coli (Ehmer, P. B. et al.; J. Steroid Biochem. Mol. Biol., 75, 57-63 (2000)). The microsomal fraction and 140 μL of phosphate buffer (50 mM Na phosphate, 1 mM MgCl2, 0.1 mM EDTA, 0.1 mM dithiothreitol, pH 7.4) were preincubated separately with a mixture of progesterone (24.95 μM) and ^3H-progesterone (0.05 μM, 101.3 Ci/mmol), […] of an NADPH regeneration system (in phosphate buffer with 10 mM NADP+, 100 mM glucose 6-phosphate and 2.5 U of glucose 6-phosphate dehydrogenase) and the appropriate test substances (in 5 μl of DMSO) at 37° C. for 5 minutes. The reaction was started by addition of the enzyme and, after 30 minutes of incubation at 37° C., stopped by addition of 50 μl of 1N hydrochloric acid.
The steroids were extracted with ethyl acetate. After evaporation of the organic phase, the steroids were taken up in acetonitrile. 16α-Hydroxyprogesterone, 17α-hydroxyprogesterone and progesterone were separated using acetonitrile/water (45:55) as mobile phase on a C18 reverse-phase chromatography column (Nucleodur C18 Gravity, 3 μm, Macherey-Nagel, Düren, Germany) on an HPLC system (Agilent 1100 Series, Agilent Technologies, Waldbronn, Germany). Detection and quantification of the steroids was carried out using a radio flow detector (Berthold Technologies, Bad Wildbad, Germany). The inhibition was calculated using the formula below: […]
Each value was calculated from at least three independent experiments. The final IC50 value was calculated as the mean of 3 or 4 independent IC50 values.

Data set [2] can be described thus: Thermodynamic solubility in aqueous buffer pH 6.5 (shake-flask method). Type of data set: physicochemical. To be noted: thermodynamic from solid. Here is the method: Determination of the Thermodynamic Solubility in Aqueous Buffer pH 6.5 (Shake-Flask Method)
The thermodynamic solubility was determined according to the shake-flask method [literature: Edward H. Kerns and Li Di (2008) Solubility Methods in: Drug-like Properties: Concepts, Structure Design and Methods, p 276-286. Burlington, Mass., Academic Press].
Here, a saturated solution of the active compound in buffer pH 6.5 was prepared and stirred for 24 h to ensure that an equilibrium between the solid and the substance in solution had formed. The solution was then centrifuged, and the concentration of the solution obtained was quantified with the aid of a calibration line.
For the sample, 2 mg of solid substance were weighed out accurately into a 4 ml glass bottle. 1 ml of phosphate buffer pH 6.5 was added. This solution was stirred on a stirrer at room temperature for 24 h. The solution was then centrifuged. To prepare the comparison for the calibration, 2 mg of solid substance were weighed out accurately and dissolved in 30 ml of acetonitrile. After a short ultrasound treatment, the solution was diluted with water to 50 ml.
Sample and comparison were quantified using HPLC with UV detection. […]
The areas of the sample and comparison injections and the calculation of the solubility (in mg/l) were determined using the HPLC software (Waters Empower 2 FR).

The target of data set [3] is recombinant human AKR1C3 (Homo sapiens (Human), UniProt P42330). Put plainly: AKR1C3 enzyme inhibition assay (Coumberone to Coumberol fluorescence). Type of data set: biochemical. To be noted: individual experimental determinations. Here is the method:
The AKR1C3-inhibitory activity of the substances of the present invention was measured in the AKR1C3 assay described in the paragraphs below.
Essentially, the enzyme activity is measured by quantification of the Coumberol from Coumberone (Halim, M., Yee, D. J., and Sames, D., J. AM. CHEM. SOC. 130, 14123-14128 (2008) and Yee, D. J., Balsanek, V., Bauman, D. R., Penning, T. M., and Sames, D., Proc. Natl. Acad. Sci. USA 103, 13304-13309 (2006)). In this test, the increase of the highly fluorescent Coumberol by NADPH—(nicotinamide adenine dinucleotide phosphate)-dependent reduction of the non-fluorescent Coumberone by AKR1C3 can be determined.
The enzyme used was recombinant human AKR1C3 (Aldo-keto reductase family 1 member C3) (GenBank Accession No. NM_003739). This was expressed in E. coli as GST (glutathione S transferase) fusion protein and purified by glutathione Sepharose affinity chromatography. The GST was removed by digestion with thrombin and subsequent size exclusion chromatography (Dufort, I., Rheault, P., Huang, X F., Soucy, P., and Luu-The, V., Endocrinology 140, 568-574 (1999)).
For the assay, 50 nl of a 100-fold concentrated solution of the test substance in DMSO were pipetted into a black low-volume 384-well microtiter plate (Greiner Bio-One, Frickenhausen, Germany), 2.0 μl of a solution of AKR1C3 in assay buffer [50 mM potassium phosphate buffer pH 7, 1 mM DTT, 0.0022% (w/v) Pluronic F-127, 0.01% BSA (w/v) and protease inhibitor cocktail (Complete, EDTA-free Protease Inhibitor Cocktail from Roche)] were added and the mixture was incubated for 15 min to allow pre-binding of the substances to the enzyme prior to the enzyme reaction. The enzyme reaction was then started by addition of 3 μl of a solution of NADPH (16.7 μM→final concentration in 5 μl of assay volume is 10 μM) and Coumberone (0.5 μM→final concentration in 5 μl of assay volume is 0.3 μM) in assay buffer, and the resulting mixture was incubated at 22° C. for the reaction time of 90 min. The concentration of the AKR1C3 was adapted to the respective activity of the enzyme preparation and adjusted such that the assay was carried out in the linear range. Typical concentrations were in the region of 1 nM. The reaction was stopped by addition of 5 μl of a stop solution consisting of the inhibitor EM-1404 [F. Labrie et al. U.S. Pat. No. 6,541,463, 2003] (2 μM→final concentration in […] is 1 μM). The fluorescence of the Coumberole was then measured at 520 nm (excitation at 380 nm) using a suitable measuring instrument (Pherastar from BMG Labtechnologies). The intensity of the fluorescence was used as a measure of the amount of Coumberole formed and thus of the enzyme activity of AKR1C3. The data were normalized (enzyme reaction without inhibitor=0% inhibition; all other assay components, but no enzyme=100% inhibition).

The mark [4] stands for this setting: human CYP17A1 expressed in E. coli, mean of 3 or 4 independent IC50 values.

Converted amounts (≈) assume the structure as drawn. “And” between values parts separate entries of the source, which are not always exact repeats. Identical values can stand only once. Like-named read-outs stand apart in the source and are kept apart here.

recombinant human AKR1C3, sequence (P42330 whole entry): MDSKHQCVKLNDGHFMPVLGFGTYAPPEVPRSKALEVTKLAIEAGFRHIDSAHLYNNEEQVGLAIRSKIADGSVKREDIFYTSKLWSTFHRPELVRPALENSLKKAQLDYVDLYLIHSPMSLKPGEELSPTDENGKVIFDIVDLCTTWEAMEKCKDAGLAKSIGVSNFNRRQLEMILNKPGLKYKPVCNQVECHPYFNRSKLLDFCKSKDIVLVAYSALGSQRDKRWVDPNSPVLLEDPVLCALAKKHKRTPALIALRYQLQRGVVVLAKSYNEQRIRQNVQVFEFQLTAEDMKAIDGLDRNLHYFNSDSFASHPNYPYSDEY
Human CYP17A1, sequence (P05093 whole entry): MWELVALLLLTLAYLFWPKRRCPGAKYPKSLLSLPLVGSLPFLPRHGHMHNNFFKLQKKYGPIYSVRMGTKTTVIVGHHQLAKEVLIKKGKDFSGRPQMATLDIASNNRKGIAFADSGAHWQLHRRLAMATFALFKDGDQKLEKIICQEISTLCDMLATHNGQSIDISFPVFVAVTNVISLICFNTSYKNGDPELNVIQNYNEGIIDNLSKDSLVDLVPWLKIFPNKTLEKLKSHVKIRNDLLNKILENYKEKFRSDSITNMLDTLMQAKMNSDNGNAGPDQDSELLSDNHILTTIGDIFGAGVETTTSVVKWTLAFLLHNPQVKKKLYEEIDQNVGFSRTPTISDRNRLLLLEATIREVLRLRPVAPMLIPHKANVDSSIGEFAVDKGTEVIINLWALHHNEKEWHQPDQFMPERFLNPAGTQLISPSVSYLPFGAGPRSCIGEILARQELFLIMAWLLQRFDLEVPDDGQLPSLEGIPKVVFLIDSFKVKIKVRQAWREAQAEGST

Consider `C[C@]12CC[C@H](O)CC1=CC[C@@H]1[C@@H]2CC[C@]2(C)C(c3cccnc3)=CC[C@@H]12` [Abiraterone, abiraterone, reference compound], for which the concentration for half-maximal inhibition (IC50) in data set [1] (setting [4]) stood at 29 ± 4 nM. As to `CC1(C)CC[C@@]2(CC[C@H]3[C@@H]4CCc5cc(C(N)=O)ccc5[C@H]4CC[C@@]32C)OC1=O` [EM-1404, reference compound], in data set [2] (aqueous buffer, phosphate buffer pH 6.5, room temperature, 24 h, shake-flask, read-out: solubility), the solubility at 24 h is 0.1 µg/mL (≈ 0.253 µM).

In data set [2] (pH 6.5, aqueous buffer), `CN(CCC(=O)O)C(=O)c1ccc2c(c1)CC[C@@H]1[C@@H]2CC[C@]2(C)C(c3cncc(F)c3)=CC[C@@H]12` [Example 2, N-{[17-(5-Fluoropyridin-3-yl)estra-1,3,5(10),16-tetraen-3-yl]carbonyl}-N-methyl-β-alanine] came in with a solubility at 24 h of 354 µg/mL (≈ 765 µM). For the same molecule, the “% Inhibition at a concentration of 200 μM substance” value in data set [1] (human CYP17, 200 μM substance) was determined as 49%. Further, the IC50 in data set [1] (setting [4]) was roughly 200000 nM; in data set [3], 1.3 nM and 1.4 nM. `CC(C)(CNC(=O)c1ccc2c(c1)CC[C@@H]1[C@@H]2CC[C@]2(C)C(c3cncc(F)c3)=CC[C@@H]12)C(=O)O` [Example 5, 3-({[17-(5-Fluoropyridin-3-yl)estra-1,3,5(10),16-tetraen-3-yl]carbonyl}amino)-2,2-dimethylpropanoic acid]: the IC50 in data set [1] (setting [4]) was 85500 ± 7700 nM; in data set [3], 9.1 nM and 8 nM and 4.3 nM and 3.6 nM.

Turning to `C[C@]12CC[C@@H]3c4ccc(C(=O)NCCC(=O)O)cc4CC[C@H]3[C@@H]1CC=C2c1cncc(F)c1` [Example 9, N-{[17-(5-Fluoropyridin-3-yl)estra-1,3,5(10),16-tetraen-3-yl]carbonyl}-β-alanine], in data set [1] (setting [4]), the “IC50 ± SD CYP17” value is recorded as “No inhibition”. For the same molecule, in data set [3], the IC50 is 8.3 nM and 8.9 nM (2×). Turning to `C[C@]12CC[C@@H]3c4ccc(C(=O)NCC(=O)O)cc4CC[C@H]3[C@@H]1CC=C2c1cncc(F)c1` [Example 10, N-{[17-(5-Fluoropyridin-3-yl)estra-1,3,5(10),16-tetraen-3-yl]carbonyl}glycine], the IC50 in data set [1] (setting [4]) is 15200 ± 1580 nM; in data set [3] it was 4.9 nM and 7.3 nM. With `COc1cncc(C2=CC[C@H]3[C@@H]4CCc5cc(C(=O)NCCCC(=O)O)ccc5[C@H]4CC[C@]23C)c1` [Example 30, 4-({[17-(5-Methoxypyridin-3-yl)estra-1,3,5(10),16-tetraen-3-yl]carbonyl}amino)butanoic acid], the concentration for half-maximal inhibition (IC50) in data set [3] was 7.3 nM and 11.2 nM.
